“Also recorded” adds a separate entry of the source.
Columns and labels:
[1] = Hydration effect of glycerol solutions by concentration; type: in vivo, human; settings: also printed as 18 g/l
[2] = Blood glucose concentration after 2 l of beverage in overnight-fasted male subjects; type: in vivo, human; settings: 8 fasting male subjects; 2 l consumed between -120 and -40 min; FIG. 2
Protocol: 2 l of each beverage were consumed between −120 and −40 min.
After an overnight fast, each subject consumed 2 l of one solution (between −120 min and −40 min in FIG. 1). All subjects had to ingest all types of solution, however in random order. Simultaneously, blood samples were taken and analyzed for plasma glucose and haemoglobin concentration as well as haematocrit. RER measurements confirmed that all subjects were in a fasting state.

[3] = cited from earlier work
[4] = large doses; cited from earlier work

OCC(O)CO [glycerol, propane-1,2,3-triol]
Concentration at which appreciable hydration effects are seen [1]: above 0.2 mol/l
Blood glucose concentration [2]: does not increase blood glucose levels; also recorded: remained unaffected
Hepatic glucose production ([3]; compared with fasting control conditions without exogenous glycerol load): does not increase hepatic glucose production
Plasma glucose concentrations ([3]; healthy fasting subjects, glycerol supplementation): does not increase plasma glucose concentrations
Toxicity [4]: non-toxic
